In paper PMC3752001 (European journal of pharmacology, 2012):
pEC50, pIC50: −log10 of the molar value. Where “and” joins values, the source holds several entries; their conditions need not be identical. Identical values can stand only once. Counter-ions that a name gives are not always drawn. Like-named read-outs stand apart in the source and are kept apart here. Blank lines part the entries; values can stand above or below the compound they belong to.

Key:
[1] = biological target: high sensitivity (HS) α4β2 nicotinic acetylcholine receptors (Homo sapiens, UniProt P17787+P43681); test: Two-electrode voltage clamp, high sensitivity; assay type: cell-based
Sequence of high sensitivity (HS) α4β2 nicotinic acetylcholine receptors (P43681 27-627): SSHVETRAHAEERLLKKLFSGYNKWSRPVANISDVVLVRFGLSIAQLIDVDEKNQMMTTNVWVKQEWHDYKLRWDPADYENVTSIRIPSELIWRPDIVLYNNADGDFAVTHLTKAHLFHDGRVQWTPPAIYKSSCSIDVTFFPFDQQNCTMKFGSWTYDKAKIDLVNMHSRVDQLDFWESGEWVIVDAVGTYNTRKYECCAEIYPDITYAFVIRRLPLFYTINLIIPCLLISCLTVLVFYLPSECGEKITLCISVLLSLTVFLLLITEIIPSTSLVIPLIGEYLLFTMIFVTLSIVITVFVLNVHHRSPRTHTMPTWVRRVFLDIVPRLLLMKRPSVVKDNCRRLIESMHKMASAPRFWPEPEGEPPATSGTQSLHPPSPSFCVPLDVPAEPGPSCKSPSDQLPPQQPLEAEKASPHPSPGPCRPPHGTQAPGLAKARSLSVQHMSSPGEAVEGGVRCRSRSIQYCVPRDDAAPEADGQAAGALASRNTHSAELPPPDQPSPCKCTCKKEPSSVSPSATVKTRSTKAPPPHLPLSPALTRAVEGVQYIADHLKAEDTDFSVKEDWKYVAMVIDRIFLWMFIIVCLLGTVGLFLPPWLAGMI
Sequence of high sensitivity (HS) α4β2 nicotinic acetylcholine receptors (P17787 26-502): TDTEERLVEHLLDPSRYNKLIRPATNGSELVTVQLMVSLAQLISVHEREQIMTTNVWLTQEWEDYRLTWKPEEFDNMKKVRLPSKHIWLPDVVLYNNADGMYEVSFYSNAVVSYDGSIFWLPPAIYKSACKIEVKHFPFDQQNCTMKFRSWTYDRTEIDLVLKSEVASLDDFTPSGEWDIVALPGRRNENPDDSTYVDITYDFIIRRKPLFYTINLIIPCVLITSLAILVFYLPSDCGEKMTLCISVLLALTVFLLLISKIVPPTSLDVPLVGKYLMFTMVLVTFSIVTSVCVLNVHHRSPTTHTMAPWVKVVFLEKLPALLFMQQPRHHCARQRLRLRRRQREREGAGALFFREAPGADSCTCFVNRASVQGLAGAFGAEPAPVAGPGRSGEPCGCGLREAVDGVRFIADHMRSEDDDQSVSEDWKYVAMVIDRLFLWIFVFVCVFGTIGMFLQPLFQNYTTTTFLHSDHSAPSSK

[2] = biological target: low sensitivity (LS) α4β2 nicotinic acetylcholine receptors (Homo sapiens, UniProt P17787+P43681); test: Two-electrode voltage clamp, low sensitivity; assay type: cell-based; settings: for Imax (%) potentiation: dFBr co-applied with 100 μM acetylcholine (EC75)
Sequence of low sensitivity (LS) α4β2 nicotinic acetylcholine receptors (P43681 27-627): as the sequence (P43681 27-627) above
Sequence of low sensitivity (LS) α4β2 nicotinic acetylcholine receptors (P17787 26-502): as the sequence (P17787 26-502) above

[3] = biological target: HS β2D218A α4β2 receptors (Homo sapiens, UniProt P17787+P43681, D218A); test: Two-electrode voltage clamp, HS β2D218A mutant preparation in Xenopus oocytes; assay type: cell-based; settings: for nH ± S.E.M.: ACh concentration/response, HSβ2D218A
Sequence of HS β2D218A α4β2 receptors (P43681 27-627): as the sequence (P43681 27-627) above
Sequence of HS β2D218A α4β2 receptors (P17787 26-502 D218A): as the sequence (P17787 26-502) above, with D193A counted along it

[4] = biological target: LS β2D218A α4β2 receptors (Homo sapiens, UniProt P17787+P43681, D218A); test: Two-electrode voltage clamp, LS β2D218A mutant preparation in Xenopus oocytes; assay type: cell-based; settings: for nH ± S.E.M.: ACh concentration/response, LSβ2D218A
Sequence of LS β2D218A α4β2 receptors (P43681 27-627): as the sequence (P43681 27-627) above
Sequence of LS β2D218A α4β2 receptors (P17787 26-502 D218A): as the sequence (P17787 26-502) above, with D193A counted along it

[5] = biological target: α7 nicotinic acetylcholine receptors (Homo sapiens, UniProt P36544); test: Two-electrode voltage clamp, α7 receptors in Xenopus oocytes; assay type: cell-based
Sequence of α7 nicotinic acetylcholine receptors (P36544 23-502): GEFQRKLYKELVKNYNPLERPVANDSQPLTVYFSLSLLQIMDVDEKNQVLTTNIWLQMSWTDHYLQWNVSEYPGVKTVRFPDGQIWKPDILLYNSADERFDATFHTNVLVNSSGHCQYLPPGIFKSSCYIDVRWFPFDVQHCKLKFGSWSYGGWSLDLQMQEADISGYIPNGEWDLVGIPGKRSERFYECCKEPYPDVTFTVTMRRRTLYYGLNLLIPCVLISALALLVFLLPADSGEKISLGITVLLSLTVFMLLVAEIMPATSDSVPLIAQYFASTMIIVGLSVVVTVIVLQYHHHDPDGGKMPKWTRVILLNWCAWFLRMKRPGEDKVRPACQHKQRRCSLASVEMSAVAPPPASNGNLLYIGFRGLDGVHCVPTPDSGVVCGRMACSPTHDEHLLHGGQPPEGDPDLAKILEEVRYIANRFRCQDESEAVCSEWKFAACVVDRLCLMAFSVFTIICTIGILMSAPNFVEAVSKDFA

[6] = test system: human and rat 5-hydroxytryptamine transporters (SERT); settings: HEPES concentrations greater than 1 mM; ref Li et al., 2002; cited from earlier work

Compound: CC(=O)OCC[N+](C)(C)C [ACh, acetylcholine chloride]
change of acetylcholine pEC50 [1]: not significantly changed | nH ± S.E.M. [1]: 0.9 ± 0.2 and 1.0 ± 0.2 | nH ± S.E.M. [2]: 1.2 ± 0.1 and 1.2 ± 0.2 | nH ± S.E.M. ([3]; HEPES ND-96 buffer): 1.1 ± 0.3 | nH ± S.E.M. ([3]; phosphate ND-96 buffer): 0.9 ± 0.3 | nH ± S.E.M. ([4]; HEPES ND-96 buffer): 1.0 ± 0.1 | nH ± S.E.M. ([4]; phosphate ND-96 buffer): 0.8 ± 0.2 | Hill slope ([5]; acetylcholine, α7, phosphate ND-96 buffer): 0.79 ± 0.13

pIC50 [1]: 3.37 | potentiation of the acetylcholine-induced Imax currents ([1]; 100 μM HEPES, HS, phosphate ND-96): 194% | current induced by HEPES alone ([1]; HEPES applied alone to α4β2 expressing oocytes (data not shown)): no induced current | maximum potentiation of acetylcholine induced responses ([1]; HEPES co-applied with 10 μM acetylcholine, HS, 2 mM phosphate ND-96, pH 7.4): 190% | potentiation by HEPES ([3]; HEPES co-applied with 10 μM acetylcholine, HS β2D218A, phosphate ND-96): not potentiated | potentiation by HEPES ([4]; HEPES co-applied with 100 μM acetylcholine, LS β2D218A, phosphate ND-96): remained insensitive | effect of HEPES on responses to acetylcholine ([5]; HEPES ≤ 10 mM co-applied with 1 mM acetylcholine, α7): little observable effect
Compound: O=S(=O)(O)CCN1CCN(CCO)CC1 [HEPES, 4-(2-hydroxyethyl)-1-piperazineethanesulfonic acid]
effect of HEPES on acetylcholine response ([2]; HEPES co-applied with 100 μM acetylcholine, LS, phosphate ND-96): only a slight inhibition of the response with no observable potentiation | decrease of SERT currents [6]: 10–50%

Compound: C=CC(C)(C)c1[nH]c2cc(Br)ccc2c1CCNC [dFBr, Desformylflustrabromine · HCl]
pEC50 [1]: 5.49 | pIC50 [1]: 4.10 | Imax (%) potentiation [1]: 370% and 360% | potentiation by dFBr [1]: ~360% | pEC50 ([1]; EC50 (potentiation)): 5.60 | pIC50 ([1]; IC50 (inhibition phase)): 4.30 | pEC50 [2]: 5.89 | pIC50 [2]: 5.20 | Imax (%) potentiation ([2]; LS, HEPES ND-96 buffer): 260% | Imax (%) potentiation ([2]; LS, phosphate ND-96 buffer): 370%

Compound: Tris (hydroxymethyl)-aminomethane hydrochloride
inhibition of acetylcholine response ([1]; 10 mM Tris co-applied with 10 μM acetylcholine, HS, phosphate ND-96): 50% | inhibition of the dFBr potentiated acetylcholine induced response ([1]; 10 mM Tris, with 1 μM dFBr and acetylcholine, HS, phosphate ND-96): about 50% | current induced by Tris alone ([1]; Tris in phosphate buffer in the absence of acetylcholine): did not induce currents | effect of Tris on acetylcholine response ([2]; Tris ≤ 10 mM co-applied with 100 μM acetylcholine, LS, phosphate ND-96): only slightly inhibited | effect of Tris on the dFBr potentiated response ([2]; Tris ≤ 10 mM, with 1 μM dFBr and acetylcholine, LS, phosphate ND-96): only slightly inhibited
